Measurements taken from PubChem BioAssay AID256 (DTP/NCI, 2004).
“And” between values parts separate entries of the source, which are not always exact repeats. Equal values may be shown once. Toxic doses and inconclusive results are not listed. The calls were made as follows: active = survival T/C of 150% or more; inactive = T/C below 125% in these data.

Tested on: CD2F1 mice, L1210 leukemia ip, survival T/C
Assay: NCI In Vivo Anticancer Drug Screen. Data for tumor model L1210 Leukemia (intraperitoneal) in CD2F1 (CDF1) mice
Settings: higher = longer survival
How it was run: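 Activity against a transplanted murine tumor was judged by comparing the compound group with a vehicle group. The outcome in the treated animals was divided by that in the controls.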

[1] = endpoint: mean survival time, dose: 200.0 mg/kg/injection, schedule: Q01DX009 (ip), vehicle: saline with Tween-80
[2] = endpoint: mean survival time, dose: 100.0 mg/kg/injection, schedule: Q01DX001 (ip), vehicle: saline with Tween-80
[3] = endpoint: mean survival time, dose: 100.0 mg/kg/injection, schedule: Q01DX009 (ip), vehicle: saline with Tween-80
[4] = endpoint: mean survival time, dose: 200.0 mg/kg/injection, schedule: Q01DX001 (ip), vehicle: saline with Tween-80
[5] = endpoint: mean survival time, dose: 400.0 mg/kg/injection, schedule: Q01DX001 (ip), vehicle: saline with Tween-80
[6] = endpoint: mean survival time, dose: 400.0 mg/kg/injection, schedule: Q01DX009 (ip), vehicle: saline with Tween-80

Measured: T/C

Nc1ncnc2c1ncn2C1OC(CO)C(O)C1O (configuration not stated)
inactive: endpoint: mean survival time, dose: 3.12 mg/kg/injection, schedule: Q01DX009 (ip), vehicle: Klucel (hydroxypropylcellulose) (HPC) 100 % of control | endpoint: mean survival time, dose: 6.25 mg/kg/injection, schedule: Q01DX009 (ip), vehicle: Klucel (hydroxypropylcellulose) (HPC) 100 % of control | endpoint: mean survival time, dose: 12.5 mg/kg/injection, schedule: Q01DX009 (ip), vehicle: Klucel (hydroxypropylcellulose) (HPC) 95 % of control | endpoint: mean survival time, dose: 18.7 mg/kg/injection, schedule: Q01DX009 (ip), vehicle: saline 87 % of control | endpoint: mean survival time, dose: 18.75 mg/kg/injection, schedule: Q01DX009 (ip), vehicle: saline 92 % of control | endpoint: mean survival time, dose: 18.75 mg/kg/injection, schedule: Q04DX003 (ip), vehicle: saline 97 % of control | endpoint: mean survival time, dose: 25.0 mg/kg/injection, schedule: Q01DX009 (ip), vehicle: Klucel (hydroxypropylcellulose) (HPC) 95 % of control | endpoint: mean survival time, dose: 25.0 mg/kg/injection, schedule: Q04DX003 (ip), vehicle: saline 100 % of control | endpoint: mean survival time, dose: 37.5 mg/kg/injection, schedule: Q01DX009 (ip), vehicle: saline 86 % of control and 96 % of control | endpoint: mean survival time, dose: 37.5 mg/kg/injection, schedule: Q04DX003 (ip), vehicle: saline 98 % of control | endpoint: mean survival time, dose: 50.0 mg/kg/injection, schedule: Q04DX003 (ip), vehicle: saline 100 % of control | endpoint: mean survival time, dose: 75.0 mg/kg/injection, schedule: Q01DX009 (ip), vehicle: saline 96 % of control | endpoint: mean survival time, dose: 110.0 mg/kg/injection, schedule: Q03HX024 (ip), vehicle: saline with Tween-80 120 % of control | endpoint: mean survival time, dose: 118.0 mg/kg/injection, schedule: Q01DX005 (ip), vehicle: water 102 % of control | endpoint: mean survival time, dose: 118.0 mg/kg/injection, schedule: Q01DX009 (ip), vehicle: water 104 % of control | endpoint: mean survival time, dose: 150.0 mg/kg/injection, schedule: Q01DX009 (ip), vehicle: saline 96 % of control and 100 % of control | endpoint: mean survival time, dose: 177.0 mg/kg/injection, schedule: Q01DX005 (ip), vehicle: water 99 % of control | endpoint: mean survival time, dose: 177.0 mg/kg/injection, schedule: Q01DX009 (ip), vehicle: water 117 % of control | [1] 117 % of control | endpoint: mean survival time, dose: 200.0 mg/kg/injection, schedule: Q03HX024 (ip), vehicle: saline with Tween-80 124 % of control | endpoint: mean survival time, dose: 266.0 mg/kg/injection, schedule: Q01DX005 (ip), vehicle: water 106 % of control | endpoint: mean survival time, dose: 266.0 mg/kg/injection, schedule: Q01DX009 (ip), vehicle: water 112 % of control | endpoint: mean survival time, dose: 300.0 mg/kg/injection, schedule: Q01DX009 (ip), vehicle: saline with Tween-80 114 % of control | endpoint: mean survival time, dose: 300.0 mg/kg/injection, schedule: Q01DX009 (ip), vehicle: saline 119 % of control and 97 % of control | endpoint: mean survival time, dose: 400.0 mg/kg/injection, schedule: Q01DX005 (ip), vehicle: water 108 % of control | endpoint: mean survival time, dose: 400.0 mg/kg/injection, schedule: Q01DX009 (ip), vehicle: water 112 % of control | endpoint: mean survival time, dose: 450.0 mg/kg/injection, schedule: Q01DX009 (ip), vehicle: saline with Tween-80 114 % of control | endpoint: mean survival time, dose: 600.0 mg/kg/injection, schedule: Q01DX005 (ip), vehicle: water 108 % of control | endpoint: mean survival time, dose: 600.0 mg/kg/injection, schedule: Q01DX009 (ip), vehicle: saline 105 % of control | endpoint: mean survival time, dose: 600.0 mg/kg/injection, schedule: Q01DX009 (ip), vehicle: water 114 % of control | endpoint: mean survival time, dose: 900.0 mg/kg/injection, schedule: Q01DX005 (ip), vehicle: water 113 % of control | endpoint: mean survival time, dose: 900.0 mg/kg/injection, schedule: Q01DX009 (ip), vehicle: water 109 % of control | endpoint: median survival time, dose: 1.56 mg/kg/injection, schedule: Q01DX009 (ip), vehicle: saline 111 % of control | endpoint: median survival time, dose: 3.12 mg/kg/injection, schedule: Q01DX009 (ip), vehicle: saline 109 % of control | endpoint: median survival time, dose: 6.25 mg/kg/injection, schedule: Q01DX009 (ip), vehicle: saline 110 % of control | endpoint: median survival time, dose: 11.25 mg/kg/injection, schedule: Q03HX012 (ip), vehicle: saline 112 % of control | endpoint: median survival time, dose: 12.5 mg/kg/injection, schedule: Q01DX009 (ip), vehicle: saline 108 % of control | endpoint: median survival time, dose: 22.5 mg/kg/injection, schedule: Q03HX012 (ip), vehicle: saline 107 % of control | endpoint: median survival time, dose: 25.0 mg/kg/injection, schedule: Q01DX009 (ip), vehicle: saline 115 % of control | endpoint: median survival time, dose: 45.0 mg/kg/injection, schedule: Q03HX012 (ip), vehicle: saline 112 % of control | endpoint: median survival time, dose: 50.0 mg/kg/injection, schedule: Q01DX009 (ip), vehicle: saline 79 % of control | endpoint: median survival time, dose: 90.0 mg/kg/injection, schedule: Q03HX012 (ip), vehicle: saline 116 % of control | endpoint: median survival time, dose: 180.0 mg/kg/injection, schedule: Q03HX012 (ip), vehicle: saline 122 % of control

CC1=NC2(CCCCC2)C[N+]1(Cc1ccccc1)Cc1ccccc1
inactive: endpoint: mean survival time, dose: 25.0 mg/kg/injection, schedule: Q01DX009 (ip), vehicle: acetone 101 % of control | endpoint: mean survival time, dose: 50.0 mg/kg/injection, schedule: Q01DX009 (ip), vehicle: acetone 97 % of control

Cc1cc(Br)ccc1[NH-].Cc1cc(Br)ccc1[NH-].[Cl][Pt+2][Cl]
inactive: endpoint: mean survival time, dose: 8.8 mg/kg/injection, schedule: Q04DX003 (ip), vehicle: saline with Tween-80 97 % of control | endpoint: mean survival time, dose: 17.5 mg/kg/injection, schedule: Q04DX003 (ip), vehicle: saline with Tween-80 97 % of control | endpoint: mean survival time, dose: 35.0 mg/kg/injection, schedule: Q04DX003 (ip), vehicle: saline with Tween-80 97 % of control | endpoint: mean survival time, dose: 70.0 mg/kg/injection, schedule: Q04DX003 (ip), vehicle: saline with Tween-80 109 % of control

CCOC(=O)c1cnc(SC)nc1NC(C)c1ccccc1 (configuration not stated)
inactive: [2] 94 % of control | [3] 97 % of control | [4] 88 % of control | [1] 89 % of control | [5] 89 % of control | [6] 94 % of control

O=C(O)c1ccc(N/N=C/C(F)(F)F)cc1
inactive: endpoint: mean survival time, dose: 1.87 mg/kg/injection, schedule: Q01DX009 (ip), vehicle: saline 107 % of control | endpoint: mean survival time, dose: 3.75 mg/kg/injection, schedule: Q01DX009 (ip), vehicle: saline 105 % of control | endpoint: mean survival time, dose: 6.25 mg/kg/injection, schedule: Q01DX001 (ip), vehicle: saline with Tween-80 97 % of control | endpoint: mean survival time, dose: 7.5 mg/kg/injection, schedule: Q01DX009 (ip), vehicle: saline 105 % of control | endpoint: mean survival time, dose: 12.5 mg/kg/injection, schedule: Q01DX001 (ip), vehicle: saline with Tween-80 94 % of control | endpoint: mean survival time, dose: 12.5 mg/kg/injection, schedule: Q01DX009 (ip), vehicle: saline with Tween-80 107 % of control | endpoint: mean survival time, dose: 15.0 mg/kg/injection, schedule: Q01DX009 (ip), vehicle: saline 109 % of control | endpoint: mean survival time, dose: 25.0 mg/kg/injection, schedule: Q01DX001 (ip), vehicle: saline with Tween-80 94 % of control | endpoint: mean survival time, dose: 25.0 mg/kg/injection, schedule: Q01DX009 (ip), vehicle: saline with Tween-80 109 % of control | endpoint: mean survival time, dose: 50.0 mg/kg/injection, schedule: Q01DX001 (ip), vehicle: saline with Tween-80 101 % of control | endpoint: mean survival time, dose: 50.0 mg/kg/injection, schedule: Q01DX009 (ip), vehicle: saline with Tween-80 101 % of control | [2] 95 % of control | [4] 89 % of control | [5] 118 % of control

C#CC1(OC(=O)Nc2ccccc2)CCCCC1
inactive: endpoint: mean survival time, dose: 100.0 mg/kg/injection, schedule: Q04DX002 (ip), vehicle: saline with Tween-80 100 % of control | endpoint: mean survival time, dose: 200.0 mg/kg/injection, schedule: Q04DX002 (ip), vehicle: saline with Tween-80 92 % of control

O=C(O)c1ccccc1C(=O)Nc1ccccc1C(F)(F)F
inactive: [3] 104 % of control | endpoint: mean survival time, dose: 100.0 mg/kg/injection, schedule: Q04DX003 (ip), vehicle: saline with Tween-80 96 % of control | [1] 106 % of control | endpoint: mean survival time, dose: 200.0 mg/kg/injection, schedule: Q04DX003 (ip), vehicle: saline with Tween-80 102 % of control | [6] 95 % of control | endpoint: mean survival time, dose: 400.0 mg/kg/injection, schedule: Q04DX003 (ip), vehicle: saline with Tween-80 105 % of control
